{
  "source": "paper PMC4076210",
  "about": "“Discovery of Novel AKT Inhibitors with Enhanced Anti-Tumor Effects in Combination with the MEK Inhibitor” (PLoS ONE, 2014)",
  "assay_in_all_cases": "Kinase panel",
  "assay_type_in_all_cases": "biochemical",
  "key": {"[1]": {"target": "T1, PKG1β(h) (Homo sapiens, UniProt Q13976)", "T1 construct": "purchased Millipore KinaseProfiler", "T1 sequence (Q13976 1-686 isoform Q13976-2)": "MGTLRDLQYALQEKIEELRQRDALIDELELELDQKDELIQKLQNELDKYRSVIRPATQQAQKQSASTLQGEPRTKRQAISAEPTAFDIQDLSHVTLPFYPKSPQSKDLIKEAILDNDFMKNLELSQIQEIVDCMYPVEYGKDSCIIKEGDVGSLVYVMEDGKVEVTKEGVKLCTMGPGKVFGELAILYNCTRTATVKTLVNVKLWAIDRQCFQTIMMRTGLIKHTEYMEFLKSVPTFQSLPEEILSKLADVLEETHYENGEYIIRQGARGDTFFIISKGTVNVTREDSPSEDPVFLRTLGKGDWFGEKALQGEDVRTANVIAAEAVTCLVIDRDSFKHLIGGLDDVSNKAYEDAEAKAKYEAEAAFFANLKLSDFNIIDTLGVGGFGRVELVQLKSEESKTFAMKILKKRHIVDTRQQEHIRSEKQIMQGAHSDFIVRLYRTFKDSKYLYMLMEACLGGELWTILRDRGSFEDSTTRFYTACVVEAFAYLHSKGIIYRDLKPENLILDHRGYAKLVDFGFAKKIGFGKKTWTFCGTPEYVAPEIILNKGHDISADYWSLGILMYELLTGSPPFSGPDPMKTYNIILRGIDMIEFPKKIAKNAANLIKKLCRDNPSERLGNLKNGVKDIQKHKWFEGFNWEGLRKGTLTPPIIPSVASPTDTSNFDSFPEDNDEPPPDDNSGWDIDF"}, "[2]": {"target": "T2, EphA1(h) (Homo sapiens, UniProt P21709)", "T2 construct": "purchased Millipore KinaseProfiler", "T2 sequence (P21709 26-976)": "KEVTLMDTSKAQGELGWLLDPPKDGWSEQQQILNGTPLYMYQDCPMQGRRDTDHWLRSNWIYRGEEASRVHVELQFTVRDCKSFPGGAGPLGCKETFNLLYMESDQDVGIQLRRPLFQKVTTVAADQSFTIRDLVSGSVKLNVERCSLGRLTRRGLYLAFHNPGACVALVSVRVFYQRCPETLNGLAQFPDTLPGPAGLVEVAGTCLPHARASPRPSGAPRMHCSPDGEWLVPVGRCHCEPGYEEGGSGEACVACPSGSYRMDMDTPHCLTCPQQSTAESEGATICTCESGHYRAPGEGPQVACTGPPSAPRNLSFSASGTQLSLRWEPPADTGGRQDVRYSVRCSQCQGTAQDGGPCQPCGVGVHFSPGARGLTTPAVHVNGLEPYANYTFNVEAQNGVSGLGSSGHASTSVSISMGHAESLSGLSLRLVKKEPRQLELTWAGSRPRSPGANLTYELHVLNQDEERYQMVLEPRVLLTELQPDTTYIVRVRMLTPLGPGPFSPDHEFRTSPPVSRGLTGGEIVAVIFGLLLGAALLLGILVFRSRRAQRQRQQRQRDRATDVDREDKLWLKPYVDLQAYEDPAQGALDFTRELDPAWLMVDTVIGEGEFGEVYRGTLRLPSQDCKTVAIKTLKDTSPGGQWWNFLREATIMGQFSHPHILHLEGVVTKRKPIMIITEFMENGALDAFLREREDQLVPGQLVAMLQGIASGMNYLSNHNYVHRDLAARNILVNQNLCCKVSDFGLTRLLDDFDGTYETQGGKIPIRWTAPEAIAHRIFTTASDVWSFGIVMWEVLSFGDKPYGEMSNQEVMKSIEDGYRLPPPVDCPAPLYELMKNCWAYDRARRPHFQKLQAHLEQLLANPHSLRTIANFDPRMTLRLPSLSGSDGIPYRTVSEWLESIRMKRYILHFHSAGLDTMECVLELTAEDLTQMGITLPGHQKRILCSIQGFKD"}, "[3]": {"target": "T3, CHK1(h) (Homo sapiens, UniProt O14757)", "T3 construct": "purchased Millipore KinaseProfiler", "T3 sequence (O14757 1-476)": "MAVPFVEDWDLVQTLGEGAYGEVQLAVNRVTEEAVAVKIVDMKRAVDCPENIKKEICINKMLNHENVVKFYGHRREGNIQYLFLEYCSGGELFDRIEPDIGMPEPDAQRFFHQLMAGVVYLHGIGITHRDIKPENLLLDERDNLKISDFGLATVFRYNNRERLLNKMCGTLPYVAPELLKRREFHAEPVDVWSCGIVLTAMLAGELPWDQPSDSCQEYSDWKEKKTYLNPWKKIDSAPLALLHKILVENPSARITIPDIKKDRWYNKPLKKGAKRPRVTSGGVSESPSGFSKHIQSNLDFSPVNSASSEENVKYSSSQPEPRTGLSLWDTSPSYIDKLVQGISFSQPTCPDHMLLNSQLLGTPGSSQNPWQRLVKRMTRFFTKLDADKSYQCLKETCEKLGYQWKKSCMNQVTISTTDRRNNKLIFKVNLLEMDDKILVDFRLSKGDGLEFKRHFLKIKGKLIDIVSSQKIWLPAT"}, "[4]": {"target": "T4, BrSK1(h) (Homo sapiens, UniProt Q8TDC3)", "T4 construct": "purchased Millipore KinaseProfiler", "T4 sequence (Q8TDC3 1-778)": "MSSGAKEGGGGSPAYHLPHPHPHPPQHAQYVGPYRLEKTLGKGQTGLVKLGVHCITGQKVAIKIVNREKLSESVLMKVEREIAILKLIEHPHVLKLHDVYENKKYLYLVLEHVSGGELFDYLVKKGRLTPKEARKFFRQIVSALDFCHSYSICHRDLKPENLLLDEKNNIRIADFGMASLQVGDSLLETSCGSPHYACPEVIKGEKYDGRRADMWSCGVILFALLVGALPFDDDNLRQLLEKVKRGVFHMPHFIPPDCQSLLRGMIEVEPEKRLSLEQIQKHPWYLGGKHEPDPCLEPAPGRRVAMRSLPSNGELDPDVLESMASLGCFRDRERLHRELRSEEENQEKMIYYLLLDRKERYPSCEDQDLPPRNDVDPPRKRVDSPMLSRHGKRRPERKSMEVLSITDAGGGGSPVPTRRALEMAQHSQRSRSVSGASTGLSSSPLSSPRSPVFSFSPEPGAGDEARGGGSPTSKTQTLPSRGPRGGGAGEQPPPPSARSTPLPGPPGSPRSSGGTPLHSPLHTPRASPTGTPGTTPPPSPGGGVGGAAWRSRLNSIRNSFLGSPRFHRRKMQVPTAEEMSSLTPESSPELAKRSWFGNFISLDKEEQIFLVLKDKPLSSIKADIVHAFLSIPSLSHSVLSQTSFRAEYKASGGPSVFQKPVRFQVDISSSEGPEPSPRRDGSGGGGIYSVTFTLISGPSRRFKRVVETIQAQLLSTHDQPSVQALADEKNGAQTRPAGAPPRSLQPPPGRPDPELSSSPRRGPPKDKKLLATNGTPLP"}, "[5]": {"target": "T5, MELK(h) (Homo sapiens, UniProt Q14680)", "T5 construct": "purchased Millipore KinaseProfiler", "T5 sequence (Q14680 whole entry)": "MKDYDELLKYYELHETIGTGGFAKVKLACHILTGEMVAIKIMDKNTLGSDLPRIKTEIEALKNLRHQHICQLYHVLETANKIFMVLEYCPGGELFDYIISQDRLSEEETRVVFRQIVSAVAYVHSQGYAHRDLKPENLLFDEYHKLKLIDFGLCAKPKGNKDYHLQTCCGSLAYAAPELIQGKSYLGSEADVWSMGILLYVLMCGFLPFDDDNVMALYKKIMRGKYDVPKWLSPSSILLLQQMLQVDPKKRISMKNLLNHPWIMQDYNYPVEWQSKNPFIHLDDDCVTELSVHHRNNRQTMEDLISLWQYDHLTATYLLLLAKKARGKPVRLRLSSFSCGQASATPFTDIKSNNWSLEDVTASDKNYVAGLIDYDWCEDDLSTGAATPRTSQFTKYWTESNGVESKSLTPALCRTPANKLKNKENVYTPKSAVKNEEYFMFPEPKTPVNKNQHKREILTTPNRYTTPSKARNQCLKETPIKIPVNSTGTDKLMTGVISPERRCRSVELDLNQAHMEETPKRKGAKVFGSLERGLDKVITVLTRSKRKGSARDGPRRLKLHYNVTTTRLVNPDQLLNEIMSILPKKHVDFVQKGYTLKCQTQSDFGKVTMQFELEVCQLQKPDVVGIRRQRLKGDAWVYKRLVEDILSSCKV"}},
  "note": "Read-outs that look alike come from different tables or passages of the source.",
  "data": [
    {"molecule": "Cn1ncc(Cl)c1-c1cc(C(=O)N[C@H](CN)Cc2cccc(F)c2)sc1Cl", "note": "[GSK2110183]", "values": [
      {"measurement": "inhibition at 0.5 µM", "setting": "[1]", "value": 101, "unit": "%"},
      {"measurement": "inhibition at 10 µM", "setting": "[1]", "value": 101, "unit": "%"},
      {"measurement": "inhibition at 0.5 µM", "setting": "[2]", "value": -14, "unit": "%"},
      {"measurement": "inhibition at 10 µM", "setting": "[2]", "value": -5, "unit": "%"},
      {"measurement": "inhibition at 0.5 µM", "setting": "[3]", "value": 13, "unit": "%"},
      {"measurement": "inhibition at 10 µM", "setting": "[3]", "value": 34, "unit": "%"},
      {"measurement": "inhibition at 0.5 µM", "setting": "[4]", "value": -3, "unit": "%"},
      {"measurement": "inhibition at 10 µM", "setting": "[4]", "value": 10, "unit": "%"},
      {"measurement": "inhibition at 0.5 µM", "setting": "[5]", "value": 79, "unit": "%"},
      {"measurement": "inhibition at 10 µM", "setting": "[5]", "value": 97, "unit": "%"}
    ]},
    {"molecule": "Cn1ncc(Cl)c1-c1cc(C(=O)N[C@H](CN)Cc2ccc(F)c(F)c2)oc1Cl", "note": "[GSK2141795]", "values": [
      {"measurement": "inhibition at 0.5 µM", "setting": "[1]; 0.5 µM, read-out: % Inhibition", "value": 101, "unit": "%"},
      {"measurement": "inhibition at 10 µM", "setting": "[1]; 10 µM, read-out: % Inhibition", "value": 100, "unit": "%"},
      {"measurement": "inhibition at 0.5 µM", "setting": "[2]; 0.5 µM, read-out: % Inhibition", "value": 4, "unit": "%"},
      {"measurement": "inhibition at 10 µM", "setting": "[2]; 10 µM, read-out: % Inhibition", "value": 53, "unit": "%"},
      {"measurement": "inhibition at 0.5 µM", "setting": "[3]; 0.5 µM, read-out: % Inhibition", "value": -9, "unit": "%"},
      {"measurement": "inhibition at 10 µM", "setting": "[3]; 10 µM, read-out: % Inhibition", "value": 21, "unit": "%"},
      {"measurement": "inhibition at 0.5 µM", "setting": "[4]; 0.5 µM, read-out: % Inhibition", "value": -2, "unit": "%"},
      {"measurement": "inhibition at 10 µM", "setting": "[4]; 10 µM, read-out: % Inhibition", "value": 7, "unit": "%"},
      {"measurement": "inhibition at 0.5 µM", "setting": "[5]; 0.5 µM, read-out: % Inhibition", "value": 80, "unit": "%"},
      {"measurement": "inhibition at 10 µM", "setting": "[5]; 10 µM, read-out: % Inhibition", "value": 97, "unit": "%"}
    ]}
  ]
}
